Source: the supplement of paper PMC10307832

Key:
Experiment in all cases: relative viability (nuclei count vs DMSO), 5 days (fraction); higher = more cells survive
[1] = tested on: A-427
How it was run: (§1)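 Relative viability is defined as nuclei in treated wells over nuclei in vehicle wells. Duplicate plates were run and medians reported. Lung cancer cell lines in 1536-well plates were dosed by pin tool one day after seeding, with one drug or with a fixed anchor-drug dose plus five library-drug doses (not always all listed) in √10 steps, and nuclei were counted after 5 days.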

[2] = tested on: HCC-15
How it was run: as §1

[3] = tested on: HCC-78
How it was run: as §1

[4] = tested on: HOP-62
How it was run: as §1

[5] = tested on: LC-2-ad
How it was run: as §1

[6] = tested on: LXF-289
How it was run: as §1

[7] = tested on: NCI-H1734
How it was run: as §1

[8] = tested on: NCI-H1755
How it was run: as §1

[9] = tested on: NCI-H1792
How it was run: as §1

[10] = tested on: NCI-H1915
How it was run: as §1

[11] = tested on: NCI-H1975
How it was run: as §1

[12] = tested on: NCI-H2126
How it was run: as §1

[13] = tested on: NCI-H2228
How it was run: as §1

[14] = tested on: NCI-H2342
How it was run: as §1

[15] = tested on: NCI-H2347
How it was run: as §1

[16] = tested on: NCI-H358
How it was run: as §1

[17] = tested on: NCI-H522
How it was run: as §1

[18] = tested on: NCI-H647
How it was run: as §1

[19] = tested on: PC-3 [JPC-3]
How it was run: as §1

[20] = tested on: RERF-LC-KJ
How it was run: as §1

[21] = tested on: SK-LU-1
How it was run: as §1

[22] = tested on: SW 1573
How it was run: as §1

CC(=O)O[C@@]12CO[C@@H]1C[C@H](O)[C@@]1(C)C(=O)[C@H](O)C3=C(C)[C@@H](OC(=O)[C@H](O)[C@@H](NC(=O)OC(C)(C)C)c4ccccc4)C[C@@](O)([C@@H](OC(=O)c4ccccc4)[C@H]21)C3(C)C [Docetaxel] + COc1cccc2cc(-c3nc([C@H]4CC[C@H](C(=O)O)CC4)n4ncnc(N)c34)[nH]c12 [OSI-027] (partner 0.5 µM)
relative viability ([1]; first compound 0.0002 µM): 0.465 | relative viability ([1]; first compound 0.000632 µM): 0.435 | relative viability ([1]; first compound 0.002 µM): 0.224 | relative viability ([1]; first compound 0.006325 µM): 0.235 | relative viability ([1]; first compound 0.02 µM): 0.155 | relative viability ([2]; first compound 0.0002 µM): 0.542 | relative viability ([2]; first compound 0.000632 µM): 0.246 | relative viability ([2]; first compound 0.002 µM): 0.205 | relative viability ([2]; first compound 0.006325 µM): 0.219 | relative viability ([2]; first compound 0.02 µM): 0.133 | relative viability ([3]; first compound 0.0002 µM): 0.321 | relative viability ([3]; first compound 0.000632 µM): 0.308 | relative viability ([3]; first compound 0.002 µM): 0.315 | relative viability ([3]; first compound 0.006325 µM): 0.278 | relative viability ([3]; first compound 0.02 µM): 0.284 | relative viability ([4]; first compound 0.0002 µM): 0.835 | relative viability ([4]; first compound 0.000632 µM): 0.631 | relative viability ([4]; first compound 0.002 µM): 0.369 | relative viability ([5]; first compound 0.0002 µM): 0.598 | relative viability ([5]; first compound 0.000632 µM): 0.589 | relative viability ([5]; first compound 0.002 µM): 0.441 | relative viability ([5]; first compound 0.006325 µM): 0.415 | relative viability ([6]; first compound 0.0002 µM): 0.819 | relative viability ([6]; first compound 0.000632 µM): 0.652 | relative viability ([6]; first compound 0.006325 µM): 0.117 | relative viability ([6]; first compound 0.02 µM): 0.067 | relative viability ([7]; first compound 0.0002 µM): 0.573 | relative viability ([7]; first compound 0.000632 µM): 0.482 | relative viability ([7]; first compound 0.002 µM): 0.307 | relative viability ([7]; first compound 0.006325 µM): 0.35 | relative viability ([7]; first compound 0.02 µM): 0.242 | relative viability ([8]; first compound 0.0002 µM): 0.677 | relative viability ([8]; first compound 0.000632 µM): 0.554 | relative viability ([8]; first compound 0.002 µM): 0.402 | relative viability ([8]; first compound 0.006325 µM): 0.39 | relative viability ([8]; first compound 0.02 µM): 0.353 | relative viability ([9]; first compound 0.0002 µM): 0.673 | relative viability ([9]; first compound 0.000632 µM): 0.699 | relative viability ([9]; first compound 0.002 µM): 0.545 | relative viability ([9]; first compound 0.006325 µM): 0.409 | relative viability ([9]; first compound 0.02 µM): 0.186 | relative viability ([10]; first compound 0.0002 µM): 0.603 | relative viability ([10]; first compound 0.000632 µM): 0.505 | relative viability ([10]; first compound 0.006325 µM): 0.224 | relative viability ([10]; first compound 0.02 µM): 0.14 | relative viability ([11]; first compound 0.0002 µM): 0.66 | relative viability ([11]; first compound 0.000632 µM): 0.479 | relative viability ([11]; first compound 0.002 µM): 0.217 | relative viability ([11]; first compound 0.006325 µM): 0.16 | relative viability ([11]; first compound 0.02 µM): 0.11 | relative viability ([12]; first compound 0.0002 µM): 0.742 | relative viability ([12]; first compound 0.000632 µM): 0.622 | relative viability ([12]; first compound 0.002 µM): 0.281 | relative viability ([12]; first compound 0.006325 µM): 0.297 | relative viability ([12]; first compound 0.02 µM): 0.221 | relative viability ([13]; first compound 0.0002 µM): 0.456 | relative viability ([13]; first compound 0.000632 µM): 0.147 | relative viability ([13]; first compound 0.002 µM): 0.159 | relative viability ([13]; first compound 0.006325 µM): 0.161 | relative viability ([13]; first compound 0.02 µM): 0.112 | relative viability ([14]; first compound 0.0002 µM): 0.592 | relative viability ([14]; first compound 0.000632 µM): 0.609 | relative viability ([14]; first compound 0.002 µM): 0.502 | relative viability ([14]; first compound 0.006325 µM): 0.46 | relative viability ([14]; first compound 0.02 µM): 0.423 | relative viability ([15]; first compound 0.0002 µM): 0.435 | relative viability ([15]; first compound 0.000632 µM): 0.382 | relative viability ([15]; first compound 0.002 µM): 0.329 | relative viability ([15]; first compound 0.006325 µM): 0.282 | relative viability ([15]; first compound 0.02 µM): 0.249 | relative viability ([16]; first compound 0.0002 µM): 0.738 | relative viability ([16]; first compound 0.000632 µM): 0.23 | relative viability ([16]; first compound 0.006325 µM): 0.0795 | relative viability ([16]; first compound 0.02 µM): 0.0599 | relative viability ([17]; first compound 0.0002 µM): 0.666 | relative viability ([17]; first compound 0.000632 µM): 0.657 | relative viability ([17]; first compound 0.002 µM): 0.541 | relative viability ([17]; first compound 0.006325 µM): 0.496 | relative viability ([17]; first compound 0.02 µM): 0.426 | relative viability ([18]; first compound 0.0002 µM): 0.524 | relative viability ([18]; first compound 0.000632 µM): 0.432 | relative viability ([18]; first compound 0.002 µM): 0.229 | relative viability ([18]; first compound 0.006325 µM): 0.0929 | relative viability ([18]; first compound 0.02 µM): 0.0717 | relative viability ([19]; first compound 0.0002 µM): 0.703 | relative viability ([19]; first compound 0.000632 µM): 0.79 | relative viability ([19]; first compound 0.002 µM): 0.441 | relative viability ([19]; first compound 0.02 µM): 0.15 | relative viability ([20]; first compound 0.0002 µM): 0.564 | relative viability ([20]; first compound 0.000632 µM): 0.543 | relative viability ([20]; first compound 0.002 µM): 0.297 | relative viability ([20]; first compound 0.006325 µM): 0.248 | relative viability ([20]; first compound 0.02 µM): 0.161 | relative viability ([21]; first compound 0.0002 µM): 0.353 | relative viability ([21]; first compound 0.000632 µM): 0.26 | relative viability ([21]; first compound 0.002 µM): 0.228 | relative viability ([21]; first compound 0.006325 µM): 0.197 | relative viability ([21]; first compound 0.02 µM): 0.144 | relative viability ([22]; first compound 0.0002 µM): 0.677 | relative viability ([22]; first compound 0.000632 µM): 0.326 | relative viability ([22]; first compound 0.002 µM): 0.199 | relative viability ([22]; first compound 0.02 µM): 0.124
